Results from patent US8598354B2, “Compounds having antiparasitic or anti-infectious activity” (University of South Florida, priority 2008, dated 2013).

Columns and labels:
P. falciparum = assay: In vitro antiplasmodial activity, MSF assay, strain not specified or all 3 strains together; assay type: cell-based, Plasmodium falciparum; details: for reduction of potency relative to ELQ-121: relative to ELQ-121, in vitro testing; for IC50: strain not stated, read-out: IC50 (effect of 3-position side chain length); for in vitro antiplasmodial activity (SAR remark in words): compared within the endochin series
Method: (§1) Plasmodium falciparum strains D6 and Dd2 were obtained from the MR4 (ATCC, Manassas, Va., USA). D6 is sensitive to chloroquine but mildly resistant to mefloquine while Dd2 is resistant to multiple quinoline and antifolate antimalarial agents. Tm90.C2B is resistant to atovaquone, chloroquine, mefloquine, and quinine.
Three different laboratory strains of P. falciparum were cultured in human erythrocytes by standard methods under a low oxygen atmosphere (5% O2, 5% CO2, 90% N2) in an environmental chamber as described in Trager, W., and J. B. Jensen. 1976. Human malaria parasites in continuous culture. Science 193:673-5. The culture medium was RPMI-1640, supplemented with 25 mM HEPES buffer, 25 mg/L gentamicin sulfate, 45 mg/L hypoxanthine, 10 mM glucose, 2 mM glutamine, and 0.5% Albumax II (complete medium). The parasites were maintained in fresh human erythrocytes suspended at a 2% hematocrit in complete medium at 37° C. Stock cultures were sub-passaged every 3 to 4 days by transfer of infected red cells to a flask containing complete medium and uninfected erythrocytes.
In vitro antimalarial activity of the compounds was assessed by the SYBR Green I fluorescence-based method (the “MSF assay”) described previously by Smilkstein, M., N. Sriwilaijaroen, J. X. Kelly, P. Wilairat, and M. Riscoe. 2004. Simple and inexpensive fluorescence-based technique for high-throughput antimalarial drug screening. Antimicrob Agents Chemother 48:1803-6 with minor modifications (Winter, R. W., J. X. Kelly, M. J. Smilkstein, R. Dodean, G. C. Bagby, R. K. Rathbun, J. I. Levin, D. Hinrichs, and M. K. Riscoe. 2006. Evaluation and lead optimization of anti-malarial acridones. Exp Parasitol 114:47-56). Experiments were set up in triplicate in 96 well plates (Costar, Corning) with two-fold dilutions of each drug across the plate in a total volume of 100 microliters and at a final red blood cell concentration of 2% (v/v). Stock solutions of each drug were prepared by dissolving in ethanol or dimethylsulfoxide (as appropriate) at 10 mM. […] Automated pipeting and dilution was carried out with the aid of a programmable Precision 2000 robotic station (BioTek, Winooski, Vt.). An initial parasitemia of 0.2% was attained by addition of normal uninfected red cells to a stock culture of asynchronous parasite infected red cells (PRBC). The plates were incubated for 72 hrs at 37° C. in an atmosphere of 5% CO2, 5% O2, and 90% N2. After this period the SYBR Green I dye-detergent mixture (100 μl) was added and the plates were incubated at room temperature for an hour in the dark and then placed in a 96-well fluorescence plate reader (Spectramax Gemini-EM, […]) for analysis with excitation and emission wavelength bands centered at 497 and 520 nm, respectively. The fluorescence readings were plotted against the logarithm of the drug concentration and curve fitting by nonlinear regression analysis (GraphPad Prism software) yielded the drug concentration that produced 50% of the observed decline relative to the maximum readings in drug-free control wells (IC50).
The compounds were screened for antiplasmodial activity in vitro against chloroquine (CQ) sensitive (D6), multidrug resistant (Dd2), and chloroquine/quinine/atovaquone (ATV)-resistant (Tm90.C2B) strains of P. falciparum. […] The following observations on the structure-activity relationships (SAR) can be made: • 1. It may be observed that the length of the 3-position side chain influences the antiplasmodial effect.

[1] = system: Plasmodium falciparum strain Tm90.C2B (chloroquine/quinine/atovaquone-resistant); assay: In vitro antimalarial activity, MSF assay, strain Tm90.C2B; assay type: cell-based; details: Tm90.C2B compared with the other strains
Method: as §1
(§2) Three different laboratory strains of P. falciparum were cultured in human erythrocytes by standard methods under a low oxygen atmosphere (5% O2, 5% CO2, 90% N2) in an environmental chamber as described in Trager, W., and J. B. Jensen. 1976. Human malaria parasites in continuous culture. Science 193:673-5. […]
(§3) In vitro antimalarial activity of the compounds was assessed by the SYBR Green I fluorescence-based method (the “MSF assay”) described previously by Smilkstein, M., N. Sriwilaijaroen, J. X. Kelly, P. Wilairat, and M. Riscoe. […] Simple and inexpensive fluorescence-based technique for high-throughput antimalarial drug screening. […] After this period the SYBR Green I dye-detergent mixture (100 μl) was added and the plates were incubated at room temperature for an hour in the dark and then placed in a 96-well fluorescence plate reader (Spectramax Gemini-EM, […]) for analysis with excitation and emission wavelength bands centered at 497 and 520 nm, respectively. […]

[2] = system: Plasmodium falciparum strain D6 (chloroquine sensitive); assay: In vitro antimalarial activity, SYBR Green I fluorescence-based method (MSF assay), strain D6; assay type: cell-based; details: P. falciparum D6, 72 hrs
Method: as §1, §2, §3

P. yoelii = assay: In vivo efficacy in a murine malaria model of patent infection with P. yoelii (modified Thompson procedure)
Method: The activity of the ester, ELQ-125, against the blood stages was assessed using a modified Thompson procedure (Arba Ager, 1984). Rodent malaria models, vol. 68/1. Springer-Verlag, Berlin. Mice (female, CF1) were infected intravenously with 1-5 million P. yoelii parasitized erythrocytes from a donor animal. […] The drug was administered by gavage once daily for 3 days. On the 4th day blood films were prepared and the extent of parasitemia was determined microscopically. ED50 and ED90 values (mg/kg/day) were derived from the dose required to reduce the parasite burden by 50% and 90%, respectively, relative to drug-free controls. The procedures involved, together with all matters relating to the care and housing of the animals used in this study, were approved by the Portland VA Medical Center Institutional Animal Care and Use Committee (approval #0807).
Prodrugs containing a water-soluble pro-moiety that could be metabolically released after drug administration were designed and synthesized.

[3] = Water solubility and vehicle miscibility of the prodrug; assay type: physicochemical; details: prodrug compared with ELQ-121
[4] = system: Toxoplasma gondii strain 2F; assay: Anti-T. gondii activity, 2F strain beta-galactosidase assay in HFF cells; assay type: cell-based; details: compared with the correlation seen for P. falciparum
Method: Determination of anti-T. gondii IC50 and TD50 values—use of the 2F strain. This method, which employs tachyzoites of Toxoplasma gondii strain 2F that constitutively expresses cytoplasmic Beta-galactosidase, has been described recently by Jones-Brando et al. (Jones-Brando, L., D'angelo, J., Posner, G H, and Yolken, R., 2006, In vitro inhibition of Toxoplasma gondii by four new derivatives of artemisinin, Antimicrobial Agents and Chemotherapy 50: 4206-8). […] Briefly, each drug was dissolved in ethanol or DMSO, as appropriate, at a concentration of 10 mM and diluted with complete Dulbecco's modified Eagle's medium (DMEM) to 1,000 μM. […] After this period, Triton X-100 is added to inactivate the parasite and the color reactions in the wells were read in a microplate reader. For anti-T. gondii IC50 determinations, the plates are read at 570-650 nm. The amount of absorbance (570-650 nm) in wells containing drug, parasites, and CPRG reagent is compared to that in control wells containing T. gondii, HFF cells and CPRG. The amount of absorbance in these wells is directly proportional to the amount of beta-galactosidase activity and thus correlative to the number of viable tachyzoites in each well. Thus, a decrease in the amount of absorbance indicates an inhibition of parasite growth. […]

[5] = mice, gavage once daily for 3 days in 100 μl NeoBee M5

CCCCCCCc1c(C)[nH]c2c(F)cc(F)cc2c1=O [6,8-difluoro positional isomer]
reduction of potency relative to ELQ-121 (P. falciparum): ≈ 2,000 fold

CCCCCCCc1c(C)[nH]c2cc(OC)ccc2c1=O [ELQ-100, endochin, reference compound]
cross-resistance / sensitivity of atovaquone-resistant Tm90.C2B (in words) [1]: modest level of ATV cross-resistance
IC50 (P. falciparum): ~0.003 µM

COc1ccc2c(=O)c(CCCCCCCCCCC(F)(F)F)c(C)[nH]c2c1 [ELQ-103]
IC50 values for all 3 tested strains (in words) (P. falciparum; D6, Dd2 and Tm90.C2B): low nanomolar range

CCCCCCCc1c(O)[nH]c2cc(OC)ccc2c1=O [ELQ-106]
IC50 [2]: > 2.5 µM

CCCCCCCc1c(C)[nH]c2cc(Cl)ccc2c1=O [ELQ-109]
in vitro antiplasmodial activity (SAR remark in words) (P. falciparum): only a modest reduction in in vitro potency

CCCCc1c(C)[nH]c2cc(OC)ccc2c1=O [ELQ-115]
IC50 (P. falciparum): ~0.03 µM

CCCCCCCc1c(C)[nH]c2cc(O)ccc2c1=O [ELQ-117]
in vitro antiplasmodial activity (SAR remark in words) (P. falciparum): greatly diminishes antiplasmodial activity

CCCCCCCc1c(C)nc2cc(F)cc(F)c2c1Cl [ELQ-119]
reduction of potency relative to ELQ-121 (P. falciparum): > 1,000 fold

CCCCCCCc1c(C)[nH]c2cc(F)ccc2c1=O [ELQ-120]
in vitro antiplasmodial activity (SAR remark in words) (P. falciparum): only a modest reduction in in vitro potency

CCCCCCCc1c(C)[nH]c2cc(F)cc(F)c2c1=O [ELQ-121, 2-Methyl-3-(n-heptyl)-5.7-difluorquinolone]
in vitro antiplasmodial activity (SAR remark in words) (P. falciparum): one of the most potent compounds in the tested series

CCCCCCCc1c(C)[nH]c2cc(Cl)cc(Cl)c2c1=O [ELQ-124]
in vitro antiplasmodial activity (SAR remark in words) (P. falciparum): weak in vitro activity

CCCCCCCc1c(C)nc2cc(F)cc(F)c2c1OC(=O)OCCOCCOCCOCCOC [ELQ-125]
parasite status on follow-up (P. yoelii; 25 mg/kg/day oral, 3 days, followed until euthanized 10 days later): remained parasite-free
ED50 (P. yoelii; [5]): 11 mg/kg/day
ED90 (P. yoelii; [5]): 22 mg/kg/day
in vivo efficacy (in words) (P. yoelii; prodrug compared with ELQ-121): greatly enhanced in vivo efficacy
water solubility [3]: improved water solubility

CCCCCCCc1c(C)[nH]c2ccccc2c1=O [ELQ-127]
in vitro antiplasmodial activity (SAR remark in words) (P. falciparum): equally active against all three parasite strains
weakening of in vitro activity relative to endochin (P. falciparum; relative to endochin): roughly 5 fold

CCCCCCCc1c(C)[nH]c2ccc(Cl)cc2c1=O [ELQ-130]
cross-resistance / sensitivity of atovaquone-resistant Tm90.C2B (in words) [1]: equal sensitivity
in vitro antiplasmodial activity (SAR remark in words) (P. falciparum): modest reduction in antimalarial response

CCCCCCCc1c(C)n(C)c2cc(F)cc(F)c2c1=O [ELQ-134]
reduction of potency relative to ELQ-121 (P. falciparum): about 300 fold
growth inhibitory activity against Toxoplasma gondii (in words) [4]: enhanced growth inhibitory activity
